Reference: patent US20250042918A1, “COMPOUNDS” (Fundación Del Sector Públlco Estatal Centro Nacional De …, priority 2021, published 2025)

What was measured:
Format in all cases: cell-based
HCC1954 = assay: In vitro potency against breast cancer cell lines (CellTiter Glo); conditions: Homo sapiens, HCC1954, 72 h; read-out: absolute IC50 HCC1954
Protocol: (§1) To prepare the complete medium FBS and appropriate additives were added according to the information sheet provided by the vendor and mixed gently. The cell name and complete medium and passage number marked on the flask were checked, and the culture medium removed and discarded using a vacuum pump. […] 3.0 ml of Trypsin-EDTA solution was added to the flask and the cells observed under an inverted microscope until cell layer is dispersed. 8.0 ml of complete growth medium was added and the cells aspirated by gently pipetting. The cell suspension was transferred to a centrifuge tube and centrifuged at 800-1000 rpm for 3-5 minutes. The supernatant was discarded using a vacuum pump, and an appropriate volume of complete medium added. The cell pellet was suspended by gently pipetting, and the cell numbers counted with Vi-cell XR and the cells adjusted to appropriate density. 100 μL of cell suspension to 96-well opaque-walled clear bottom plates was added according to the planned plate layout and the plates placed in the CO2 incubator overnight.
(§2) c. […] Meanwhile the day 0 plate was measured by Cell TiterGlo as listed below.
(§3) d. Cells were incubated with the compounds for 72 h at 5% CO2, 37° C.
(§4) The CellTiter-Glo buffer was thawed and equilibrated to room temperature prior to use. The lyophilized CellTiter-Glo substrate was equilibrated to room temperature prior to use. The appropriate volume of CellTiter-Glo buffer was transferred into the amber bottle containing CellTiter-Glo substrate to reconstitute the lyophilized enzyme/substrate mixture, thereby forming the CellTiter-Glo reagent. Mixing was carried out by gently vortexing, swirling or by inverting the contents to obtain a homogeneous solution, the CellTiter-Glo substrate going into solution easily in less than one minute.
(§5) The plate and its contents were equilibrated to room temperature for approximately 30 minutes, after which 100 μL of CellTiter-Glo reagent was added to the assay plate by Multidrop Combi instrument and the contents mixed for 10 minutes on an orbital shaker to induce cell lysis. The plate was allowed to incubate at room temperature for 10 minutes to stabilize luminescent signal and the clear bottom pasted with white back seal and the luminescence recorded with Enspire with the settings: Luminescence, measurement time 0.1 ms.

HCC38 = assay: as above; conditions: Homo sapiens, HCC38, 72 h; read-out: absolute IC50 HCC38
Protocol: as §1, §2, §3, §4, §5

T-47D = assay: as above; conditions: Homo sapiens, T47D, 72 h; read-out: absolute IC50 T-47D
Protocol: as §1, §2, §3, §4, §5

MDA-MB-361 = assay: as above; conditions: Homo sapiens, MDA-MB-361, 72 h; read-out: absolute IC50 MDA-MB-361
Protocol: as §1, §2, §3, §4, §5

HCC1143 = assay: as above; conditions: Homo sapiens, HCC1143, 72 h; read-out: absolute IC50 HCC1143
Protocol: as §1, §2, §3, §4, §5

BT-474 = assay: as above; conditions: Homo sapiens, BT-474, 72 h; read-out: absolute IC50 BT-474
Protocol: as §1, §2, §3, §4, §5

KG-1 = assay: In vitro potency against leukemia cell lines (CellTiter Glo); conditions: Homo sapiens, 72 hours, read-out: absolute IC50 KG-1
Protocol: as §1, §2, §3, §5
(§6) In all cases, the incubation time was 72 hours and the cell lines were grown as a suspension. The seeding density was […] in a 96 well plate.

HL-60 = assay: as above; conditions: Homo sapiens, 72 hours, read-out: absolute IC50 HL-60
Protocol: as §1, §2, §3, §5, §6

Kasumi-3 = assay: as above; conditions: 72 hours, read-out: absolute IC50 Kasumi-3
Protocol: as §1, §2, §3, §5, §6

OCI-M1 = assay: as above; conditions: 72 hours, read-out: absolute IC50 OCI-M1
Protocol: as §1, §2, §3, §5, §6

Molm-13 = assay: as above; conditions: Homo sapiens, 72 hours, read-out: absolute IC50 Molm-13
Protocol: as §1, §2, §3, §5, §6

Jeko-1 = assay: as above; conditions: Homo sapiens, 72 hours, read-out: absolute IC50 JeKo-1
Protocol: as §1, §2, §3, §5, §6

MV-4-11 = assay: as above; conditions: Homo sapiens, MV4-11; 72 hours; read-out: absolute IC50 MV-4-11
Protocol: as §1, §2, §3, §5, §6

- IC50 (HCC1954): 14.5 nM
- IC50 (HCC38): 66.4 nM
- IC50 (T-47D): 56.5 nM
- IC50 (MDA-MB-361): 30.1 nM
- IC50 (HCC1143): 145 nM
- IC50 (BT-474): 114 nM
- IC50 (KG-1): 90 nM
- IC50 (HL-60): 430 nM
- IC50 (Kasumi-3): 105 nM
- IC50 (OCI-M1): 125 nM
- IC50 (Molm-13): 44.3 nM
- IC50 (Jeko-1): 67.8 nM
- IC50 (MV-4-11): 36.5 nM
Structure (SMILES): Cn1c(=O)n(-c2ccc(C(C)(C)C#N)cc2)c2c3cc(-c4cnc5ccccc5c4)ccc3ncc21 [Dactolisib, dactolisib]
